From US20240228501A1, “IMIDAZOLE-CONTAINING CONDENSED RING DERIVATIVE, PREPARATION METHOD THEREFOR, AND APPLICATION THEREOF IN MEDICINE” (CHANGCHUN GENESCIENCE PHARMACEUTICAL CO., LTD., priority 2021, published 2024) come the findings set out here.

For one series, the target named is T1, human NK-3 receptor (Homo sapiens, UniProt P29371).
T1 construct: expressed in transfected cells; host or cells: HEK293
T1 sequence (P29371 1-465): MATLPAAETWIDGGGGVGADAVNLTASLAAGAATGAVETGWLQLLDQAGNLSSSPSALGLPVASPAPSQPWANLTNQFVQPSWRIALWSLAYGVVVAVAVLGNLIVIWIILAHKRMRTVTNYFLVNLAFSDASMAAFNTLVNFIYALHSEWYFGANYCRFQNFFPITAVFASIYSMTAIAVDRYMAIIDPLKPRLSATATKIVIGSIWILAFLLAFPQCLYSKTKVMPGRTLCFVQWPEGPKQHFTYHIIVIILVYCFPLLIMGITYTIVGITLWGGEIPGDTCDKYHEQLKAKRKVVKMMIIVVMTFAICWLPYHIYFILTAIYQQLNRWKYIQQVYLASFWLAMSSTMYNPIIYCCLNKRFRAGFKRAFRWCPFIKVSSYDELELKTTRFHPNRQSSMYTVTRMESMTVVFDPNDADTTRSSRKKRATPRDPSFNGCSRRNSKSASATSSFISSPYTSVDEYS
As to the kind of experiment: Antagonistic activity on human NK-3 receptor in human NK-3R/HEK293 stably transfected cells (Fluo-4, FLIPR, Neurokinin B as agonist). The series is classed as cell-based. Particulars: human NK-3R/HEK293 cells. The essentials:
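HEK293 cells stably expressing human NK-3R loaded with Component A dye 2 h at 37° C, then preincubated with serially 3-fold diluted compound 30 min at 25° C. Neurokinin B (2.5 nM, 6× stock) added on FLIPR Tetra to read calcium signal. IC50 from inhibition curves versus reference agonist.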

Series [1] can be described thus: Pharmacokinetic test in rats (gavage 3 mg/kg, intravenous 1 mg/kg). The series is classed as in vivo. Conditions: rat, plasma, SD rats; for Cmax: read-out: Blood concentration Cmax; for AUC: read-out: Curve area AUC; for half-life: read-out: Half life T1/2 (converted). The protocol:
Test Example 2: Pharmacokinetic Test of Compounds of the present invention in Rats
(§1) To study in vivo pharmacokinetic behaviors of the compounds of the present invention in rats, and evaluate pharmacokinetic characteristics thereof.
An appropriate amount of sample was weighed, and ultrasonically prepared into a 0.3 mg/mL suspension for the gavage administration group; and was prepared into a 0.2 mg/mL suspension for the intravenous administration group as per a formula of 5% DMSO+10% Solutol+85% (20% SBE-β-CD).
SD rats were fasted overnight, and then administered by gavage at a dosage of 3 mg/kg and by intravenous injection at a dosage of 1 mg/kg, respectively.
0.1 mL of blood was collected before administration and at 5 min, 15 min, 30 min, 1 h, 2 h, 4 h, 8 h, and 24 h after administration, transferred into heparinized tubes, and centrifuged at 3500 rpm for 10 min to separate the plasma, which was stored at −20° C. 4 h after administration, the animals were resumed for feeding/free access to water.
Contents of the test compounds in plasma of the rats after gavage administration were determined by LC/MS/MS.

A short description of series [2]: Pharmacokinetic test in rats: plasma and brain concentration after gavage 3 mg/kg. The series is classed as in vivo. Conditions: rat, oral, SD rats. As to the method:
Test Example 4: Pharmacokinetic Test of Compounds of the Present Invention in Rats
as §1
An appropriate amount of sample was weighed, and ultrasonically prepared into a 0.3 mg/mL suspension for the gavage administration group as per a formula of 5% DMSO+10% Solutol+85% (20% SBE-β-CD).
SD rats were fasted overnight, and then administered by gavage at a dosage of 3 mg/kg respectively.
Blood and cerebrospinal fluid were collected at designed time points after administration, and then brain tissue was collected after cardiac perfusion with normal saline. Plasma was collected by centrifugation within 1 h, and then immediately transferred onto wet ice. Centrifugation conditions: 4-10° C., 8,000 rpm, 6 min. 4 h after administration, the animals were resumed for feeding/free access to water.
The concentrations of corresponding compounds in plasma and cerebrospinal fluid were detected by LC-MS/MS.

A further series concerns MDR1. The series can be described thus: In vitro brain model test: MDR1-MDCKII bidirectional permeability. The series is classed as in vitro ADME. Conditions: dog; for Papp A→B at 2.5 h, 2 μM / Papp B→A at 2.5 h, 2 μM: MDCK-MDR1, pH 7.4, 2 μM, pH7.4. As to the method: The test product was diluted from dimethyl sulfoxide stock solution to a concentration of 2 μM (dimethyl sulfoxide <1%) with a transfer buffer (HBSS containing 10 mM Hepes, pH7.4); and was applied to apical or basolateral cavities of the cell monolayer. Penetration of the test compound from the direction A to the direction B or from the direction B to the direction A was determined in duplicate. Digoxin was detected at 10 μM in the direction of A-B, or detected in the direction of B-A, while Nadolol and Metoprolol were detected at 2 μM in the direction of A-B in duplicate. The plate was cultivated in a CO2 incubator at 37±1° C. for 2.5 h with 5% CO2 at a saturated humidity without shaking. Further, the efflux rate of each compound was also determined. According to the peak area ratio of analyte/IS, the test product and the control product were quantitatively analyzed by LC-MS/MS.
After the transfer test, the monolayer integrity of cells was determined by a lucifer yellow exclusion assay. Buffer was removed from apical and basolateral cavities, and then 75 μL of 100 μM lucifer yellow and 250 μL of transfer buffer were added into the apical and basolateral cavities, respectively. The culture dish was cultivated at 37° C., 5% CO2, and saturated humidity for 30 min without shaking. After incubation for 30 min, 20 μL of lucifer yellow sample was extracted from the top, and then 60 μL of the transfer buffer was added. Then, 80 μL of lucifer yellow sample was extracted basolaterally. Relative Fluorescence Units (RFU) of lucifer yellow were measured at 425/528 nm (excitation/emission) with an Envision plate reader.

Where [3] appears, read: brain/plasma, read-out: B/P ratio.

Like-named read-outs stand apart in the source and are kept apart here.

As to `Cc1nsc(-c2nc(-c3cc(F)ncc3F)c3n2CCN(C(=O)c2ccc(F)cc2)[C@@H]3C)n1` [Compound 077, (R)-(1-(2,5-difluoropyridin-4-yl)-8-methyl-3-(3-methyl-1,2,4-thiadiazol-5-yl)-5,6-dihydroimidazo[1,5-a]pyrazin-7 (8H)-yl)(4-fluorophenyl)methanone], the IC50 (commonly the concentration that inhibits the measured activity by half) at human NK-3 receptor was found to be 0.0145 µM. In addition, in series [1] (po, gavage 3 mg/kg vs intravenous 1 mg/kg, read-out: Oral bioavailability F (%)), the bioavailability (commonly the share of a dose that reaches the circulation, judged against a reference dose that is usually intravenous) was determined as 58.4%. Further, the Cmax in series [1] (po, gavage 3 mg/kg) came to 0.494 ± 0.0706 µg/mL. The AUC – broadly, concentration integrated over time – in series [1] (po, gavage 3 mg/kg) was 9.86 ± 3.55 µg·h/mL; in series [1] (intravenous injection 1 mg/kg), 5.17 ± 0.581 µg·h/mL. The half-life in series [1] (po, gavage 3 mg/kg) was 11.7 ± 7.72 h; in series [1] (intravenous injection 1 mg/kg) it was 11.8 ± 3.54 h. Besides, the concentration at 0.5 h in series [2] (brain, sampling time 0.5 h, read-out: Brain conc.) came to 2.57 ± 0.178 µg/mL; in series [2] (plasma, sampling time 0.5 h, read-out: Plasma conc.), 0.798 ± 0.0798 µg/mL. In addition, the concentration at 2 h in series [2] (brain, read-out: Brain conc.) amounted to 1.98 ± 0.232 µg/mL; in series [2] (plasma, read-out: Plasma conc.) it was 0.547 ± 0.0945 µg/mL. Moreover, the concentration at 8 h came to 2.02 ± 0.406 µg/mL in series [2] (brain, sampling time 8 h, read-out: Brain conc.) and 0.598 ± 0.0749 µg/mL in series [2] (plasma, sampling time 8 h, read-out: Plasma conc.). Further, the Kp at 0.5 h in series [2] (brain/plasma, sampling time 0.5 h, read-out: B/P ratio) turned out to be 3.25. Besides, the Kp at 2 h in series [2] (setting [3]) came out at 3.66. The Kp at 8 h in series [2] (brain/plasma, sampling time 8 h, read-out: B/P ratio) turned out to be 3.36. For the same molecule, the Papp A→B (usually how fast a substance crosses the layer from the apical side) at 2.5 h, 2 μM in the series with MDR1 came out at 183 nm/s. Besides, the Papp B→A (commonly the apparent permeability from the basolateral to the apical side of a cell layer) at 2.5 h, 2 μM in the series on MDR1 was 140 nm/s. For the same molecule, the efflux ratio at 2.5 h, 2 μM in the series on MDR1 (MDCK-MDR1, pH 7.4, B to A / A to B, read-out: Efflux rate) stood at 0.77.
In the case of `Cc1nsc(-c2nnc3n2CCN(C(=O)c2ccc(F)cc2)[C@@H]3C)n1` [Fezolinetant, reference compound], the half-maximal inhibitory concentration (IC50) at human NK-3 receptor is 0.734 µM. Further, the Cmax in series [1] (po, gavage 3 mg/kg) turned out to be 2.18 µg/mL. In addition, the AUC in series [1] (po, gavage 3 mg/kg) is 10.1 µg·h/mL; in series [1] (intravenous injection 1 mg/kg), 2.67 µg·h/mL. In addition, the half-life was 3.22 h in series [1] (po, gavage 3 mg/kg) and 1.94 h in series [1] (intravenous injection 1 mg/kg). Also, the concentration at 1 h worked out at 0.512 ± 0.0884 µg/mL in series [2] (brain, sampling time 1 h, read-out: Brain conc.) and 1.33 ± 0.177 µg/mL in series [2] (plasma, sampling time 1 h, read-out: Plasma conc.). In addition, the concentration at 2 h in series [2] (brain, read-out: Brain conc.) was 0.585 ± 0.117 µg/mL; in series [2] (plasma, read-out: Plasma conc.) it was 1.28 ± 0.11 µg/mL. The concentration at 4 h amounted to 0.419 ± 0.0371 µg/mL in series [2] (brain, sampling time 4 h, read-out: Brain conc.) and 0.961 ± 0.021 µg/mL in series [2] (plasma, sampling time 4 h, read-out: Plasma conc.). Further, in series [2] (brain/plasma, sampling time 1 h, read-out: B/P ratio), the Kp at 1 h turned out to be 0.38. Further, the Kp at 2 h in series [2] (setting [3]) amounted to 0.46. In series [2] (brain/plasma, sampling time 4 h, read-out: B/P ratio), the Kp at 4 h was 0.44. The Papp A→B at 2.5 h, 2 μM in the series with MDR1 came out at 262 nm/s. The molecule also registered a Papp B→A at 2.5 h, 2 μM in the series with MDR1 of 284 nm/s.
